The values below are quoted from earlier work in patent publication US20260183243A1, “PHARMACEUTICAL COMPOSITIONS OF NOR-UDCA” (SHILPA MEDICARE LIMITED, priority 2022, published 2026).

For the data set the following is noted: background statement, no test described.

Consider `C[C@H](CC(=O)O)[C@H]1CC[C@H]2[C@@H]3[C@@H](O)C[C@@H]4C[C@H](O)CC[C@]4(C)[C@H]3CC[C@]12C` [Nor-UDCA, 24-nor-ursodeoxycholic acid], for which the “solubility in an aqueous medium” value was “poorly soluble”.
